Source: patent US8513437B2, “Pyrrolidino-1,4-naphthoquinone deriviatives and their use for treating malignancies and cardiovascular diseases” (Ben Gurion University of the Negev Research and Development …, priority 2004, dated 2013)
Entries after “also recorded” stand apart in the source; their conditions may differ. Like-named read-outs stand apart in the source and are kept apart here.

How the values were obtained:
cardiomyocytes = experiment: Cardiomyocyte viability (XTT) following incubation with EH48; format: cell-based, rat; settings: cardiomyocytes starved 16-18 h, compound 24 h, XTT 4 h, FIG. 5
Experimental: (§1) The cell viability was examined using the XTT method following kit instructions (Biological Industry, Israel). The assay is based on the ability of metabolic active cells to reduce the tetrazolium salt XTT to orange colored compound of formazan. The dye formed is water soluble and the dye intensity can be read with spectrophotometer at 450-500 nm. The intensity of the dye is proportional to the number of metabolic active cells.
The viability of the cells was measured as described above. Briefly, cells were starved for 16-18 h followed by incubation with the compound of formula II (EH48) for 24 h and incubation with XTT for an other 4 h. The assay is based on the ability of metabolic active cells to reduce the tetrazolium salt XTT to orange colored compound of formazan. The intensity of the dye is proportional to the number of metabolically active cells.

[1] = tested on: cardiomyocytes in rat heart; experiment: Cardiomyocyte proliferation following direct injection in-vivo (PCNA staining); settings: direct injection into rat heart, 0.5, 5 and 50 microM, three days, versus saline
Experimental: Proliferation of cardiomyocytes was evaluated in-vivo following direct injection of EH48 in three concentrations (0.5, 5 and 50 microM) into rat heart. Three days after injections rats were sacrificed and the hearts were fixed with formaldehyde 4%. Slides of 5 micron were stained with the DNA specific marker PCNA. Only cells with morphology of cardiomyocytes (large cells with striation) that expressed the PCNA in the nucleus (brown staining) were considered as proliferate cardiomyocytes (FIG. 6A, arrows). The number of stained cells in each treatment was evaluated compared to control (saline injected) rats (FIG. 6B).

[2] = tested on: primary cardiomyocytes derived from neonatal rats; experiment: Cell viability (XTT) of cardiomyocytes; format: cell-based, rat; settings: for injury of cardiomyocytes at concentrations killing VSM cells: cardiomyocytes versus VSM cells; for IC50: 24 h incubation with compound, then XTT 4 h, read-out: ID50 Cardiomyocytes
Experimental: (§2) Three main cell types of the cardiovascular system were evaluated: primary cardiomyocytes derived from neonatal rats primary vascular smooth muscle (VSM) cells derived from rat aorta and human umbilical vein endothelial cells. Furthermore, human colon carcinoma HT29 cells and BL6-8 melanoma cells were evaluated as representative cancer cells. The cells were prepared as described previously in Etzion S. et al.: JMCC 33 (2001) 1321-30; Granot Y. et al.: JBC 268 (1993) 9564-9; the ATCC (the Global Bioresource Center™); and Assa-Kunik et al.: J. Immunol. 171 (2003) 2945-52.
as §1
The viability of the cells was measured as described above. Briefly, cells were incubated with the compounds for 24 h followed by incubation with XTT for 4 h. The assay is based on the ability of metabolic active cells to reduce the tetrazolium salt XTT to orange colored compound of formazan. The intensity of the dye is proportional to the number of metabolically active cells. The concentration at which 50% cells remain viable, ID50, is shown in Table 1 for several compounds of the invention.

ERKs [3] = experiment: Western immunoblot, ERKs phosphorylation in VSM cells; format: cell-based, rat; settings: 0.5-20 μM, 20 min, 37° C., FIG. 1A
Experimental: (§3) Stimulation of ERKs and p38-MAPKs with compounds of the invention was characterized in VSM cells and cardiomyocytes. […] As a positive control for ERKs activation, the cells were incubated with 10^−7M EGF for 5 minutes. […] Therefore, this compound and other derivates may be used as selective compounds to inhibit or stimulate one of the members in the MAPKs-signaling pathway.

p38-MAPK [4] = experiment: Western immunoblot, p38-MAPK phosphorylation in VSM cells; format: cell-based, rat; settings: 0.5-20 μM, 20 min, 37° C., FIG. 1A
Experimental: as §3

ERKs [5] = experiment: Western immunoblot, ERKs phosphorylation in cardiomyocytes; format: cell-based, rat; settings: 0.5-10 μM, 20 min, 37° C., FIG. 1B
Experimental: (§4) The effect of the compounds of formula I on ERKs and p38-MAPK was checked in cardiomycetes. […] Stimulation of the MAPKs members by compounds of the invention was compared with the stimulation by the growth factor Ang (Angiotensin II, 10 nM, 10 min), which is known as MAPKs stimulator in cardiomyocytes. […] ERKs and p38 were related to the total amount of ERKs proteins in the sample. […] As explained, the ERKs signaling pathway participate in the cell survival and proliferation. Administering the compounds stimulating this pathways after myocardial infarction may accelerate cell survival of the cardiomyoctes; alternatively, said compounds may be administered as a preventing drug before the injury occurs in risk cases.

p38-MAPK [6] = experiment: Western immunoblot, p38-MAPK phosphorylation in cardiomyocytes; format: cell-based, rat; settings: 0.5-10 μM, 20 min, 37° C., FIG. 1B
Experimental: as §4

[7] = tested on: HT29 human colon carcinoma cells; experiment: Apoptosis of HT29 cells (DNA fragmentation, PI staining); format: cell-based; settings: 48 h incubation
Experimental: The various cell types were incubated with a compound of formula I (0.3-25 μM) for 24-48 h. Untreated cells were served as control. After trypsinization, cells were centrifuged for 5 min, 1500 g and resuspended in DMEM medium contains 10% FCS. Sample of the cells (25 μl) was added to 2 μl mixture of (5 μg/ml) ethidium bromide and (5 μg/ml) acridine orange in PBS. Sample of the stained cells was examined under fluorescent microscope. Ethidium bromide binds to the DNA of damaged cells and stains it orange, while acridine orange stains the nucleus in green. Apoptotic cells appear as nuclei with orange staining of fragmented DNA.
HT29 cells, either untreated or treated 48 h with a compound of formula I (25 μM), after trypsinization, were collected and centrifuged for 5 min, 800 g. The pellet was resuspended with PBS and centrifuged again. 60 μl of PBS was added to the pellet followed by addition of 360 μl of ice-cold 80% ethanol and incubating overnight at −20° C. The cells were thawed on ice and centrifuged for 5 min 800 g 4° C. […] Analysis was carried out by fluorescence-activated flow cytometer (FACSscan).
Apoptosis was evaluated following incubation of 48 h with compound TW 69 using DNA fragmentation method (ethidium bromide staining) and PI (propidium iodide) staining assay, as described above. […]

[8] = tested on: primary vascular smooth muscle (VSM) cells derived from rat aorta; experiment: Cell viability (XTT) of VSM cells; format: cell-based; settings: 24 h incubation with compound, then XTT 4 h; read-out: ID50 VSM cells
Experimental: as §2, §1
(§5) The viability of the cells was measured as described above. Briefly, cells were incubated with the compounds for 24 h followed by incubation with XTT for 4 h. The assay is based on the ability of metabolic active cells to reduce the tetrazolium salt XTT to orange colored compound of formazan. The intensity of the dye is proportional to the number of metabolically active cells. […]

[9] = tested on: human umbilical vein endothelial cells; experiment: Cell viability (XTT) of endothelial cells; format: cell-based; settings: 24 h incubation with compound, then XTT 4 h; read-out: ID50 Endothelial cells
Experimental: as §2, §1, §5

[10] = tested on: HT29 human colon carcinoma cells; experiment: Viability of HT29 human colon carcinoma cells; format: cell-based; settings: 24 h incubation; read-out: ID50 HT29-colon carcinoma
Experimental: as §2, §1
HT29 human carcinoma cells were incubated for 24 h with compounds of the invention.

ERKs [11] = settings: HT29 cells, 5-25 μM, 20 min to 4 h, FIG. 3A
P38 pathway = experiment: Western immunoblot, p38 phosphorylation in BL6-8 melanoma cells; format: cell-based; settings: FIG. 3B
STAT3 = experiment: Western immunoblot, STAT3 phosphorylation in VSM cells; settings: VSM cells activated with AVP, FIG. 2
Experimental: (§6) Confluent cell monolayers were growth-arrested in serum-free medium for 24 h prior to treatment with the compounds in this patent. Cells were washed twice with medium, scraped, resuspended in lysis buffer (10% glycerol, 25 mM NaCl, 0.1% Triton X-100, 50 mM NaF, 10 mM Na-pyrophosphate, 2 mM EGTA, 2 mM DTT, 20 mM p-nitro-phenylphosphate, 25 mM Tris-HCl, 2 mM Na2VO4, 10 μM PMSF, 10 μg/ml Leupeptin), and the lysate was centrifuged at 14,000 rpm for 20 min. Samples were separated by SDS-polyacrylamide gel electrophoresis, transferred to nitrocellulose membrane, and blocked for 1 h at room temperature with 5% nonfat milk in TBS-T buffer (20 mM Tris, 500 mM NaCl, and 0.01% Tween 20). The membrane was then incubated overnight at 4° C. with an appropriate dilution of anti-phospho-ERKs or anti-total ERK, anti-phospho-p38 or anti-phospho-JNK, followed by incubation for 1 h with the appropriate horseradish peroxidase-conjugated secondary antibody. The immunoblot signal was visualized through enhanced chemiluminescence.

ERKs survival pathway = experiment: Western immunoblot, ERKs phosphorylation in BL6-8 melanoma cells; settings: FIG. 3B
Experimental: as §6
The cells were starved for 24 h in serum free medium, incubated with the selected compound (5-25 μM) for 20 min to 4 h (dependent on the compound examined), 37° C., harvested, centrifuged and suspended in the lysis buffer. The MAPKs stimulation was estimated using the western immunoblot analysis as described above.

Row | Compound | XTT dye intensity (cell survival and viability) (cardiomyocytes) | survival and proliferation of cardiomyocytes in-vivo (PCNA-stained cells) [1] | injury of cardiomyocytes at concentrations killing VSM cells [2] | stimulation of ERKs signaling (ERKs [3]) | stimulation of p38-MAPK signaling (p38-MAPK [4]) | stimulation of ERKs signaling pathway (ERKs [5]) | stimulation of p38-MAPK signaling pathway (p38-MAPK [6]) | acceleration of apoptotic response [7] | IC50 [2] | IC50 [8] | IC50 [9] | IC50 [10] | stimulation of ERKs signaling pathway (ERKs [11]) | stimulation of P38 pathway (P38 pathway) | inhibition of STAT3 phosphorylation (STAT3) | stimulation of ERKs survival pathway (ERKs survival pathway)
1 | COC(=O)[C@@H]1CCCN1C1=C(Cl)C(=O)c2ccccc2C1=O [EH48, 2-chloro-3-(L-prolinemethyl ester)-1,4-naphthoquinone] | increase in cell survival and viability; also recorded: XTT elevation | positive in-vivo effect |  |  |  |  |  |  |  |  |  |  |  |  |  | 
2 | Cc1ccc(NC2=C(Cl)C(=O)c3ccccc3C2=O)cc1 [TW69, 2-chloro-3-(p-methylphenylamino)-1,4-naphthoquinone] |  |  | did not injure the cardiomyocytes at concentrations killing VSM cells | stimulate both ERKs and p38-MAPKs signaling | stimulate both ERKs and p38-MAPKs signaling | stimulate mainly the ERKs signaling pathway; also recorded: induced the formation of phosphorylated ERKs protein | without significantly influencing the p38-MAPK signaling pathway; also recorded: without inducing the formation of phosphorylated p38 protein | 30% |  |  |  |  |  |  |  | 
3 | Cc1ccc(NC2=C(N3CCCC3)C(=O)c3ccccc3C2=O)cc1 [TW85, 2-pyrrolidine-3-(p-methylphenylamino)-1,4-naphthoquinone] |  |  |  |  |  | stimulates the ERKs signaling pathway; also recorded: induced the formation of phosphorylated ERKs protein | not the p38-MAPK signaling pathway; also recorded: without inducing the formation of phosphorylated p38 protein |  | > 20000 nM | 3600 nM | 800 nM | 3500 nM |  |  |  | 
4 | O=C1C(Nc2ccc(O)cc2)=C(N2CCCC2)C(=O)c2ccccc21 [TW96, 2-pyrrolidine-3-(p-hydroxy-phenylamino)-1,4-naphthoquinone] |  |  | did not injure the cardiomyocytes at concentrations killing VSM cells |  | stimulates mostly the P38-MAPK |  |  |  | 400 nM | 200 nM | 500 nM | 500 nM | without significantly influencing the ERKs signaling pathway | specifically stimulate the P38 pathway | strong inhibitor of STAT3 phosphorylation | without stimulating the ERKs survival pathway
